Reference: ChEMBL document CHEMBL4359937, “Design, synthesis and evaluation of 2-amino-imidazol-4-one derivatives as potent β-site amyloid precursor protein cleaving enzyme 1 (BACE-1) inhibitors” (Bioorg Med Chem Lett, 2019)

Legend:
Beta-secretase 1 [1] = molecular target: T1, Beta-secretase 1 (Homo sapiens, UniProt P56817); test: Inhibition of human BACE1 (1 to 460 residues) expressed in baculovirus infected insect cells using Rh-EVNLDAEFK-quencher as substrate measured after 90 mins by FRET assay
Beta-secretase 1 [2] = molecular target: T1, Beta-secretase 1; test: Inhibition of human BACE1 (1 to 460 residues) expressed in baculovirus infected insect cells at 10 uM using Rh-EVNLDAEFK-quencher as substrate measured after 90 mins by FRET assay relative to control
[3] = 1-Octanol/water distribution coefficient, logP of compound at 60 ug/ml shaken for 30 mins and measured by ultraviolet spectrophotometry analysis; type: physicochemical

T1 sequence (P56817 whole entry, the tested form may be a part): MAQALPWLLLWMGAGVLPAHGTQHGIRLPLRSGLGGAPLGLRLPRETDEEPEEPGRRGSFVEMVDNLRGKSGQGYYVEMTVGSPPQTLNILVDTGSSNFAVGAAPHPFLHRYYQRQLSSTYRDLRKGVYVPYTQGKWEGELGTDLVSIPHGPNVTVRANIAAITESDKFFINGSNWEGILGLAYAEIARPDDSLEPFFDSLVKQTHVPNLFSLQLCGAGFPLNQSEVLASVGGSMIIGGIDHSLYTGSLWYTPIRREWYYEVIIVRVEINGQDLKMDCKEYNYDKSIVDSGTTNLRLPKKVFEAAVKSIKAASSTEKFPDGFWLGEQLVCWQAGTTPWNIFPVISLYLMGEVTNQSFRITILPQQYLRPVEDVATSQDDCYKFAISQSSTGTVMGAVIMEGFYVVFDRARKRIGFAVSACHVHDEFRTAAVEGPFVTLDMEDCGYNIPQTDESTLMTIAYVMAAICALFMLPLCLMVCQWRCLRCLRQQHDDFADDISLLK

SMILES | IC50 (Beta-secretase 1 [1]) [µM] | inhibition (Beta-secretase 1 [2]) [%] | logP at 0.5 h [3]
Cc1ccc(-c2cccc(C3(c4ccccc4)N=C(N)N(C)C3=O)c2)c(F)c1 (stereo unspecified) | 0.141 | 97 | 2.97
Cc1cc(F)ccc1-c1cccc(C2(c3ccccc3)N=C(N)N(C)C2=O)c1 (stereo unspecified) | 0.456 | 87.7 | 2.34
Cc1cc(C)cc(-c2cccc(C3(c4ccccc4)N=C(N)N(C)C3=O)c2)c1 (stereo unspecified) | > 10 | 47.2 | 2.56
COc1cc(OC)cc(-c2cccc(C3(c4ccccc4)N=C(N)N(C)C3=O)c2)c1 (stereo unspecified) | 0.851 | 80.7 | 2.41
COc1cccc(OC)c1-c1cccc(C2(c3ccccc3)N=C(N)N(C)C2=O)c1 (stereo unspecified) | 0.721 | 82.1 | 2.02
Cc1ccc(F)cc1-c1cccc(C2(c3ccccc3)N=C(N)N(C)C2=O)c1 (stereo unspecified) | 0.328 | 92 | 2.35
COc1cccc(-c2cccc(C3(c4ccccc4)N=C(N)N(C)C3=O)c2)c1OC (stereo unspecified) | 1.11 | 78.6 | 2.15
COc1ccc(-c2cccc(C3(c4ccccc4)N=C(N)N(C)C3=O)c2)c(OC)c1 (stereo unspecified) | 1.57 | 75.5 | 2.46
Cc1ccc(C)c(-c2cccc(C3(c4ccccc4)N=C(N)N(C)C3=O)c2)c1 (stereo unspecified) | > 10 | 42.1 | 2.52
CN1C(=O)C(c2ccccc2)(c2ccccc2)N=C1N | – | 62.2 | 1.9
COc1ccc(F)cc1-c1cccc(C2(c3ccccc3)N=C(N)N(C)C2=O)c1 (stereo unspecified) | 0.173 | 96 | 2.86
Cc1ccc(-c2cccc(C3(c4ccccc4)N=C(N)N(C)C3=O)c2)c(C)c1 (stereo unspecified) | > 10 | 40.9 | 2.51
CN1C(=O)C(c2ccccc2)(c2cccc(Br)c2)N=C1N (stereo unspecified) | > 10 | 33.1 | 2.04
Cc1cc(C)c(-c2cccc(C3(c4ccccc4)N=C(N)N(C)C3=O)c2)c(C)c1 (stereo unspecified) | > 10 | 45.7 | 2.55

Results, then the compound that gave them:

IC50 (Beta-secretase 1 [1]) [µM] | inhibition (Beta-secretase 1 [2]) [%] | logP at 0.5 h [3] | SMILES
0.425 | 88.3 | 2.49 | Cc1ccc(-c2cccc(C3(c4ccccc4)N=C(N)N(C)C3=O)c2)cc1C (stereo unspecified)
> 10 | 37.7 | 2.99 | CN1C(=O)C(c2ccccc2)(c2cccc(-c3ccc(OCc4ccccc4)cc3)c2)N=C1N (stereo unspecified)
> 10 | 43.9 | 3.18 | CN1C(=O)C(c2ccccc2)(c2cccc(-c3ccc(-c4ccccc4)cc3)c2)N=C1N (stereo unspecified)
> 10 | 34.1 | 2.42 | Cc1cccc(C)c1-c1cccc(C2(c3ccccc3)N=C(N)N(C)C2=O)c1 (stereo unspecified)
0.22 | 94.7 | 2.72 | COc1cccc(-c2cccc(C3(c4ccccc4)N=C(N)N(C)C3=O)c2)c1F (stereo unspecified)
> 10 | 34.2 | 3.1 | CN1C(=O)C(c2ccccc2)(c2cccc(-c3ccc(C(C)(C)C)cc3)c2)N=C1N (stereo unspecified)
> 10 | 43.5 | 2.56 | CCc1ccc(-c2cccc(C3(c4ccccc4)N=C(N)N(C)C3=O)c2)cc1 (stereo unspecified)
0.119 | 97.5 | 2.49 | COc1ccc(-c2cccc(C3(c4ccccc4)N=C(N)N(C)C3=O)c2)cc1OC (stereo unspecified)
0.195 | 95 | 2.54 | COc1ccc(OC)c(-c2cccc(C3(c4ccccc4)N=C(N)N(C)C3=O)c2)c1 (stereo unspecified)
> 10 | 20.5 | 3.14 | CN1C(=O)C(c2ccccc2)(c2cccc(-c3cccc(-c4ccccc4)c3)c2)N=C1N (stereo unspecified)
